Test results taken from US20240425491A1, “HETEROARYL COMPOUNDS USEFUL IN THE TREATMENT OF COGNITIVE DISORDERS” (University College Cardiff Consultants Limited, priority 2021, published 2024).

Target: T1, human recombinant GABAAR containing α5β3γ2 subunits (benzodiazepine site) (Homo sapiens, UniProt P18507+P31644)
T1 construct: expressed in transfected cells; host or cells: mouse L(tk−) cells, dexamethasone-inducible vector pMSGneo
Experiment: In vitro radioligand binding assay (α5-GABAAR Ki)
Details: not given
Excerpt: Mouse L(tk^−) cells stably expressing human α1β3γ2, α2β3γ2, α3β3γ2, α5β3γ2 GABAARs generated by transfection of the individual subunits in the dexamethasone-inducible expression vector pMSGneo in mouse L(tk^−) cells (Hadingham et al., 1993, Mol. Pharmacol. 43:970-975 and 1993, Mol. Pharmacol. 44:1211-1218) were used for binding and functional assays. For certain compounds, HEK293 cells stable expressing the human α1β3γ2L, α2β3γ2L, α3β3γ2L and α5β3γ2L GABAA receptors were used to evaluate their functional effects in a SyncroPatch electrophysiology assay.
L(tk^−) cells stably expressing human α1β3γ2, α2β3γ2, α3β3γ2, α5β3γ2 GABAARs were maintained in DMEM F12 medium supplemented with 10% Foetal Bovine Serum, 1% Penicillin/Streptomycin and 1 mg/mL Geneticin G418 in an incubator at 37° C. with a humidified atmosphere with 5% CO2.
The affinity (Ki) of compounds for the benzodiazepine site of human recombinant GABAARs was measured by their ability to inhibit the binding of the selective benzodiazepine antagonist [^3H] Ro15-1788 ([^3H] flumazenil).
L(tk^−) cells expressing human recombinant GABAAR containing α1β3γ2, α2β3γ2, α3β3γ2, α5β3γ2 subunits were harvested and membranes were prepared for each receptor combination in phosphate buffer (K2PO4 10 mM, pH 7.0) (Hadingham et al. (1992) Proc. Natl. Acad. Sci. USA; 89 (14): 6378-82). Protein concentration, receptor expression and the Kd of [^3H] Ro15-1788 were determined before Ki values of compounds were evaluated. For Kd evaluation, saturation binding curves were obtained by incubating membrane with various concentrations of [^3H] Ro15-1788 (82.5 Ci/mM), with nonspecific binding measured in the presence of 1 μM TP003.
For Ki evaluation, cell membranes were incubated with 4 nM [^3H] Ro15-1788 along with a range of concentrations of test compound. Nonspecific binding was determined using 1 μM TP003. All incubations were performed for 1 hour at 4° C. in assay buffer. The total assay volume was 0.5 mL, containing 100 μg membrane protein/well α1β3γ2, α2β3γ2, α3β3γ2 and 50 μg membrane protein/well for α53γ2. Incubations were terminated by filtration and washing with ice cold Tris-HCl buffer (50 mM, pH=7.4) over Whatman GF/B filters and the radioactivity of the filters was measured using liquid scintillation counting.
The % inhibition of [^3H] Ro15-1788 binding was plotted as a function of compound concentration and the IC50 calculated. From the IC50, the affinity (Ki) was calculated using the method of Cheng and Prusoff using the Kd values obtained for [^3H] Ro15-1788.

T1 sequence (P31644 32-462): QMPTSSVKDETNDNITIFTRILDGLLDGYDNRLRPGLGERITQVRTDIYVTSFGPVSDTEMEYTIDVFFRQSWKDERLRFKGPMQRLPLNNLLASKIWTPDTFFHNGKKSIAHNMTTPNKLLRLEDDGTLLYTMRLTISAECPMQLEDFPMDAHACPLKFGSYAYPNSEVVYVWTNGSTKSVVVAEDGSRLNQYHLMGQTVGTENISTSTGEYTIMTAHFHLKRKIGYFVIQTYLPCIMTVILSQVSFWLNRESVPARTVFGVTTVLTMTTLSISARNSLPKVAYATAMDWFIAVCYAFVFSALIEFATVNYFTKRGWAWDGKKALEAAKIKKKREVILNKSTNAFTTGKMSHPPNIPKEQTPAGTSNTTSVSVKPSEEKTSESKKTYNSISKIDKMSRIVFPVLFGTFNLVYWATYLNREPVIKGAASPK
T1 sequence (P28472 26-473 partner): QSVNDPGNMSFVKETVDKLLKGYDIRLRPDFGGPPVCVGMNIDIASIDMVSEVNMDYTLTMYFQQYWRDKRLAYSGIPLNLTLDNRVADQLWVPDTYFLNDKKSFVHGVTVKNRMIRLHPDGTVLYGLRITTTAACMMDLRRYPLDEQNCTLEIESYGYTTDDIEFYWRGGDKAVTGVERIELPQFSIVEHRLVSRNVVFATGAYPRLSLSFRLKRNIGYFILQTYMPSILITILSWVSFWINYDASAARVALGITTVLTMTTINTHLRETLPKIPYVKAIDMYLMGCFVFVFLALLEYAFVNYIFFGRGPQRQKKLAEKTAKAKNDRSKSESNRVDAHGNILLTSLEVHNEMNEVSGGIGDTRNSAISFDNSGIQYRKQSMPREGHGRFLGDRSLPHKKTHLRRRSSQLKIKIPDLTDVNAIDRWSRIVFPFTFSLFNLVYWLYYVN
T1 sequence (P18507 40-475): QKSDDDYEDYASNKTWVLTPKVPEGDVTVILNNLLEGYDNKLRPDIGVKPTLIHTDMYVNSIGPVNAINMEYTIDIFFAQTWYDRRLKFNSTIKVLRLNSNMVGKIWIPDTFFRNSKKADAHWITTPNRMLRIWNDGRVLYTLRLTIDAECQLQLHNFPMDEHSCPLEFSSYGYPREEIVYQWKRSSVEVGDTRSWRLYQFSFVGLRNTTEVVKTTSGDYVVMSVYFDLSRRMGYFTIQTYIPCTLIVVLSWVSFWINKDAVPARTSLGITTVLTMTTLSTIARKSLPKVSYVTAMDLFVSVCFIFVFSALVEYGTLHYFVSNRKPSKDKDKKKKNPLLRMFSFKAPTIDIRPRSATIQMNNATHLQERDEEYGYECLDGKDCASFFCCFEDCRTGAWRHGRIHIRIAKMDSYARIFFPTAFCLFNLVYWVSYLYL

Row | SMILES | Ki [nM]
1 | COc1cc2c(-c3ccc(NC(=O)c4c(-c5ccccc5)noc4C)c(OC)n3)cn(C)c2cn1 [Example 109, N-(2-Methoxy-6-(5-methoxy-1-methyl-1H-pyrrolo[2,3-c]pyridin-3-yl)pyridin-3-yl)-5-methyl-3-phenylisoxazole-4-carboxamide] | 47.2

Same assay, conditions: inhibition of [3H]Ro15-1788 binding, membranes of L(tk−) cells expressing human α5β3γ2; read-out: α5-GABAAR Ki

Row | SMILES | Ki [nM]
2 | COc1nc(-c2cccc([N+](=O)[O-])c2)ccc1NC(=O)c1c(-c2ccccc2)noc1C [Example 8, N-[2-Methoxy-6-(3-nitrophenyl)-3-pyridyl]-5-methyl-3-phenyl-isoxazole-4-carboxamide] | 104
3 | COc1ncc(-c2ccc(NC(=O)c3c(-c4ccccc4)noc3C)c(OC)n2)s1 [Example 10, N-[2-Methoxy-6-(2-methoxythiazol-5-yl)-3-pyridyl]-5-methyl-3-phenyl-isoxazole-4-carboxamide] | 72.9
4 | COc1nc(-c2cccc(N(C)C)c2)ccc1NC(=O)c1c(-c2ccccc2)noc1C [Example 16, N-[6-[3-(Dimethylamino)phenyl]-2-methoxy-3-pyridyl]-5-methyl-3-phenyl-isoxazole-4-carboxamide] | 403
5 | COc1nc(-c2ccncc2C)ccc1NC(=O)c1c(-c2ccccc2)noc1C [Example 24, N-[2-Methoxy-6-(3-methyl-4-pyridyl)-3-pyridyl]-5-methyl-3-phenyl-isoxazole-4-carboxamide] | 162
6 | COc1nc(-c2c(C)n[nH]c2C)ccc1NC(=O)c1c(-c2ccccc2)noc1C [Example 25, N-[6-(3,5-Dimethyl-1H-pyrazol-4-yl)-2-methoxy-3-pyridyl]-5-methyl-3-phenyl-isoxazole-4-carboxamide] | 34.2
7 | COc1cc(-c2c(C)n[nH]c2C)cnc1NC(=O)c1c(-c2ccccc2)noc1C [Example 31, N-[5-(3,5-Dimethyl-1H-pyrazol-4-yl)-3-methoxy-2-pyridyl]-5-methyl-3-phenyl-isoxazole-4-carboxamide] | 69.1
8 | COc1nc(-c2cc(OC)c3cn[nH]c3c2)ccc1NC(=O)c1c(-c2ccccc2)noc1C [Example 32, N-[2-Methoxy-6-(4-methoxy-1H-indazol-6-yl)-3-pyridyl]-5-methyl-3-phenyl-isoxazole-4-carboxamide] | 110
9 | COc1nc(-c2ccc3cn[nH]c3c2)ccc1NC(=O)c1c(-c2ccccc2)noc1C [Example 34, N-[6-(1H-Indazol-6-yl)-2-methoxy-3-pyridyl]-5-methyl-3-phenyl-isoxazole-4-carboxamide] | 115
10 | COc1nc(-c2ccc3c(N)n[nH]c3c2)ccc1NC(=O)c1c(-c2ccccc2)noc1C [Example 35, N-[6-(3-Amino-1H-indazol-6-yl)-2-methoxy-3-pyridyl]-5-methyl-3-phenyl-isoxazole-4-carboxamide] | 27.2
11 | COc1nc(-c2cnc(Cl)nc2)ccc1NC(=O)c1c(-c2ccccc2)noc1C [Example 36, N-[6-(2-Chloropyrimidin-5-yl)-2-methoxy-3-pyridyl]-5-methyl-3-phenyl-isoxazole-4-carboxamide] | 2
12 | COc1nc(-c2nccn3ccnc23)ccc1NC(=O)c1c(-c2ccccc2)noc1C [Example 38, N-(6-Imidazo[1,2-a]pyrazin-8-yl-2-methoxy-3-pyridyl)-5-methyl-3-phenyl-isoxazole-4-carboxamide] | 57.6
13 | COc1nc(-c2cnc(N)c(OC)n2)ccc1NC(=O)c1c(-c2ccccc2)noc1C [Example 39, N-[6-(5-Amino-6-methoxy-pyrazin-2-yl)-2-methoxy-3-pyridyl]-5-methyl-3-phenyl-isoxazole-4-carboxamide] | 32.3
14 | COc1nc(-c2ncn(C)n2)ccc1NC(=O)c1c(-c2ccccc2)noc1C [Example 51, N-[2-Methoxy-6-(1-methyl-1,2,4-triazol-3-yl)-3-pyridyl]-5-methyl-3-phenyl-isoxazole-4-carboxamide] | 20.5
15 | COc1nc(-c2ncccn2)ccc1NC(=O)c1c(-c2ccccc2)noc1C [Example 63, N-(2-Methoxy-6-pyrimidin-2-yl-3-pyridyl)-5-methyl-3-phenyl-isoxazole-4-carboxamide] | 32.6
16 | COc1nc(-c2cccnn2)ccc1NC(=O)c1c(-c2ccccc2)noc1C [Example 64, N-(2-Methoxy-6-pyridazin-3-yl-3-pyridyl)-5-methyl-3-phenyl-isoxazole-4-carboxamide] | 21.9
17 | COc1nc(-c2ccncn2)ccc1NC(=O)c1c(-c2ccccc2)noc1C [Example 65, N-(2-Methoxy-6-pyrimidin-4-yl-3-pyridyl)-5-methyl-3-phenyl-isoxazole-4-carboxamide] | 49
18 | COc1nc(-c2nccs2)ccc1NC(=O)c1c(-c2ccccc2)noc1C [Example 66, N-(2-Methoxy-6-thiazol-2-yl-3-pyridyl)-5-methyl-3-phenyl-isoxazole-4-carboxamide] | 236
19 | COc1nc(-c2ccsn2)ccc1NC(=O)c1c(-c2ccccc2)noc1C [Example 69, N-(6-Isothiazol-3-yl-2-methoxy-3-pyridyl)-5-methyl-3-phenyl-isoxazole-4-carboxamide] | 232
20 | COc1nc(-c2ccccn2)ccc1NC(=O)c1c(-c2ccccc2)noc1C [Example 73, N-[2-Methoxy-6-(2-pyridyl)-3-pyridyl]-5-methyl-3-phenyl-isoxazole-4-carboxamide] | 154
21 | COc1nc(-c2ccc(SC(F)(F)F)nc2)ccc1NC(=O)c1c(-c2ccccc2)noc1C [Example 76, N-(6-Methoxy-6′-((trifluoromethyl)thio)-[2,3′-bipyridin]-5-yl)-5-methyl-3-phenyl-isoxazole-4-carboxamide] | 297
22 | COc1nc(-c2ccc(OC(F)F)nc2)ccc1NC(=O)c1c(-c2ccccc2)noc1C [Example 88, N-(6′-(Difluoromethoxy)-6-methoxy-[2,3′-bipyridin]-5-yl)-5-methyl-3-phenyl-isoxazole-4-carboxamide] | 26.6
23 | COc1nc(-c2cnc(N(C)C)c(Cl)c2)ccc1NC(=O)c1c(-c2ccccc2)noc1C [Example 98, N-(5′-Chloro-6′-(dimethylamino)-6-methoxy-[2,3′-bipyridin]-5-yl)-5-methyl-3-phenylisoxazole-4-carboxamide] | 664
24 | COc1nc(-c2nnn(C)c2C)ccc1NC(=O)c1c(-c2ccccc2)noc1C [Example 101, N-(6-(1,5-Dimethyl-1H-1,2,3-triazol-4-yl)-2-methoxypyridin-3-yl)-5-methyl-3-phenylisoxazole-4-carboxamide] | 45.1
25 | COc1nc(-c2c[nH]c3ncccc23)ccc1NC(=O)c1c(-c2ccccc2)noc1C [Example 105, N-(2-Methoxy-6-(1H-pyrrolo[2,3-b]pyridin-3-yl)pyridin-3-yl)-5-methyl-3-phenylisoxazole-4-carboxamide] | 113
26 | COc1nc(-c2cnn3cccnc23)ccc1NC(=O)c1c(-c2ccccc2)noc1C [Example 112, N-(2-Methoxy-6-(pyrazolo[1,5-a]pyrimidin-3-yl)pyridin-3-yl)-5-methyl-3-phenylisoxazole-4-carboxamide] | 80.6
27 | COc1nc(-c2cnccn2)ccc1NC(=O)c1c(-c2ccccc2)noc1C [Example 113, N-(2-Methoxy-6-(pyrazin-2-yl)pyridin-3-yl)-5-methyl-3-phenylisoxazole-4-carboxamide] | 41.7
28 | COc1nc(-c2cnc3c(c2)CC(=O)N3)ccc1NC(=O)c1c(-c2ccccc2)noc1C [Example 114, N-(2-Methoxy-6-(2-oxo-2,3-dihydro-1H-pyrrolo[2,3-b]pyridin-5-yl)pyridin-3-yl)-5-methyl-3-phenylisoxazole-4-carboxamide] | 6.3
29 | COc1nc(-c2cn(-c3nccs3)nc2C)ccc1NC(=O)c1c(-c2ccccc2)noc1C [Example 115, N-(2-Methoxy-6-(3-methyl-1-(thiazol-2-yl)-1H-pyrazol-4-yl)pyridin-3-yl)-5-methyl-3-phenylisoxazole-4-carboxamide] | 99.8
30 | COc1nc(-c2c[nH]c(=O)c(F)c2)ccc1NC(=O)c1c(-c2ccccc2)noc1C [Example 116, N-(5′-Fluoro-6-methoxy-6′-oxo-1′,6′-dihydro-[2,3′-bipyridin]-5-yl)-5-methyl-3-phenylisoxazole-4-carboxamide] | 2.9
